Source: PubChem BioAssay AID328 (DTP/NCI, 2004)
“And” between values parts separate entries of the source, which are not always exact repeats. Equal entries are not always repeated. Inconclusive results and toxic doses are left out.

System: BDF1 mice, P388 leukemia ip, median survival T/C
Experiment: NCI In Vivo Anticancer Drug Screen. Data for tumor model P388 Leukemia (intraperitoneal) in B6D2F1 (BDF1) mice
Conditions: endpoint: median survival time, higher = longer survival
How it was run: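 Read-out is survival of treated animals expressed relative to the vehicle group, as a T/C ratio.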

[1] = dose: 100.0 mg/kg/injection, schedule: Q01DX009 (ip), vehicle: Klucel (hydroxypropylcellulose) (HPC)
[2] = dose: 100.0 mg/kg/injection, schedule: Q04DX003 (ip), vehicle: Klucel (hydroxypropylcellulose) (HPC)
[3] = dose: 200.0 mg/kg/injection, schedule: Q04DX003 (ip), vehicle: Klucel (hydroxypropylcellulose) (HPC)
[4] = dose: 50.0 mg/kg/injection, schedule: Q01DX009 (ip), vehicle: saline with Tween-80
[5] = dose: 100.0 mg/kg/injection, schedule: Q01DX009 (ip), vehicle: saline with Tween-80
[6] = dose: 200.0 mg/kg/injection, schedule: Q01DX009 (ip), vehicle: Klucel (hydroxypropylcellulose) (HPC)

SMILES: C[n+]1cccc2c3ccccc3c(-c3ccccc3)cc21
- T/C (dose: 0.39 mg/kg/injection, schedule: Q01DX009 (ip), vehicle: water): 101 % of control
- T/C (dose: 0.78 mg/kg/injection, schedule: Q01DX009 (ip), vehicle: water): 90 % of control and 106 % of control
- T/C (dose: 1.56 mg/kg/injection, schedule: Q01DX009 (ip), vehicle: water): 89 % of control and 94 % of control and 103 % of control
- T/C (dose: 3.12 mg/kg/injection, schedule: Q01DX009 (ip), vehicle: water): 87 % of control and 93 % of control and 116 % of control
- T/C (dose: 6.25 mg/kg/injection, schedule: Q01DX009 (ip), vehicle: water): 98 % of control and 104 % of control and 122 % of control
- T/C (dose: 6.25 mg/kg/injection, schedule: Q04DX003 (ip), vehicle: water): 90 % of control
- T/C (dose: 12.5 mg/kg/injection, schedule: Q01DX009 (ip), vehicle: water): 100 % of control and 111 % of control
- T/C (dose: 12.5 mg/kg/injection, schedule: Q04DX003 (ip), vehicle: water): 103 % of control
- T/C (dose: 25.0 mg/kg/injection, schedule: Q04DX003 (ip), vehicle: water): 112 % of control
- T/C (dose: 50.0 mg/kg/injection, schedule: Q01DX009 (ip), vehicle: water): 113 % of control

SMILES: O=C(O)C1CCCN1C(=O)c1ccc(Cl)c(Cl)c1 (stereo unspecified)
- T/C (dose: 50.0 mg/kg/injection, schedule: Q01DX005 (ip), vehicle: saline with Tween-80): 100 % of control
- T/C (dose: 100.0 mg/kg/injection, schedule: Q01DX005 (ip), vehicle: saline with Tween-80): 93 % of control
- T/C (dose: 200.0 mg/kg/injection, schedule: Q01DX005 (ip), vehicle: saline with Tween-80): 99 % of control

SMILES: CC(=O)C(=Cc1c[nH]c2ccccc12)C(C)=O
- T/C (dose: 12.5 mg/kg/injection, schedule: Q01DX009 (ip), vehicle: Klucel (hydroxypropylcellulose) (HPC)): 92 % of control
- T/C (dose: 25.0 mg/kg/injection, schedule: Q01DX009 (ip), vehicle: Klucel (hydroxypropylcellulose) (HPC)): 90 % of control
- T/C [1]: 110 % of control
- T/C (dose: 100.0 mg/kg/injection, schedule: Q04DX003 (ip), vehicle: water): 105 % of control
- T/C (dose: 200.0 mg/kg/injection, schedule: Q04DX003 (ip), vehicle: water): 120 % of control

SMILES: CSc1nc(Cl)c(Br)c(Sc2nc(N)nc3nc[nH]c23)n1
- T/C (dose: 132.0 mg/kg/injection, schedule: Q04DX003 (ip), vehicle: saline with Tween-80): 120 % of control

SMILES: Cc1c(N2CCCCC2)[nH]c2ccccc12
- T/C (dose: 50.0 mg/kg/injection, schedule: Q04DX003 (ip), vehicle: Klucel (hydroxypropylcellulose) (HPC)): 100 % of control
- T/C [2]: 100 % of control
- T/C [3]: 95 % of control

SMILES: CC1=NN(c2ccccc2)C(=O)C1C(=S)SC1CC(=O)OC1=O (stereo unspecified)
- T/C [4]: 100 % of control
- T/C [5]: 112 % of control

SMILES: CCOC(=O)C(=NN(C)C)C(=O)OCC
- T/C (dose: 50.0 mg/kg/injection, schedule: Q01DX009 (ip), vehicle: saline): 104 % of control
- T/C (dose: 100.0 mg/kg/injection, schedule: Q01DX009 (ip), vehicle: saline): 92 % of control
- T/C (dose: 200.0 mg/kg/injection, schedule: Q01DX009 (ip), vehicle: saline): 101 % of control

SMILES: O=S1(=O)C=C(c2ccccc2)C(c2ccccc2)=C1
- T/C (dose: 22.0 mg/kg/injection, schedule: Q04DX003 (ip), vehicle: saline): 104 % of control
- T/C (dose: 33.0 mg/kg/injection, schedule: Q04DX003 (ip), vehicle: saline): 113 % of control
- T/C (dose: 50.0 mg/kg/injection, schedule: Q04DX003 (ip), vehicle: saline sonified): 118 % of control
- T/C (dose: 75.0 mg/kg/injection, schedule: Q04DX003 (ip), vehicle: saline sonified): 150 % of control
- T/C (dose: 75.0 mg/kg/injection, schedule: Q04DX003 (ip), vehicle: saline): 122 % of control

SMILES: O=C(CI)N1c2ccccc2Sc2ccc3ccccc3c21
- T/C [4]: 91 % of control
- T/C [5]: 96 % of control
- T/C (dose: 200.0 mg/kg/injection, schedule: Q01DX009 (ip), vehicle: saline with Tween-80): 116 % of control

SMILES: Cc1ccc(C2(C(=O)O)CCCCC2)cc1
- T/C [1]: 100 % of control
- T/C [2]: 109 % of control
- T/C [6]: 92 % of control
- T/C [3]: 104 % of control
- T/C (dose: 400.0 mg/kg/injection, schedule: Q04DX003 (ip), vehicle: Klucel (hydroxypropylcellulose) (HPC)): 100 % of control

SMILES: Cc1cnc2ncn(Cc3c[nH]c(=O)[nH]c3=O)c(=O)c2c1
- T/C (dose: 12.5 mg/kg/injection, schedule: Q01DX001 (ip), vehicle: saline with Tween-80): 105 % of control and 112 % of control
- T/C (dose: 25.0 mg/kg/injection, schedule: Q01DX001 (ip), vehicle: saline with Tween-80): 104 % of control and 109 % of control
- T/C (dose: 50.0 mg/kg/injection, schedule: Q01DX001 (ip), vehicle: saline with Tween-80): 102 % of control

SMILES: Cc1ccc2nc3c4ccccc4c4ccccc4c3nc2c1
- T/C [1]: 109 % of control
- T/C [6]: 90 % of control
- T/C (dose: 400.0 mg/kg/injection, schedule: Q01DX009 (ip), vehicle: Klucel (hydroxypropylcellulose) (HPC)): 100 % of control
